Non-standard residues stand in square brackets, D forms with d. Residues, ends and D or L forms follow the SMILES beside them. No end group written: not given here.
Experiment: Blood Brain Barrier (BBB) penetration assay, ELISA of spinal fluid after I.P. injection
Format: in vivo, mice
Settings: for level of the polypeptide in mice brain following injection: I.P. 60 mg/kg in 5% mannitol, spinal fluid collected after 1 hour, ELISA, compared to 5% mannitol control
Description: ICR female mice having initial body weight of 20-22 grams were used (Envigo).
A control group of 6 mice was injected intraperitoneally (I.P.) with 5% mannitol solution and another group of 6 mice was injected I.P. with the polypeptide dTCApFs (also termed herein Nerofe, at 60 mg/kg) in a 5% mannitol solution. Spinal fluid was collected after the injection (1 hour) and subjected to ELISA analysis of dTCApFs (Nerofe), as detailed below.
Mice were injected with 60 mg/kg D-amino acid dTCApFs (Nerofe), and cerebrospinal fluid (about 10 μl) and serum were collected after 1 hr, and frozen. A calibration curve was prepared by serial dilutions of the polypeptide in PBS (Biological industries, 02-023-5A) as noted in table 1 below.
Next, the cerebrospinal samples were thawed and kept on ice, and then diluted in 220 μl PBS. Sample loading was next performed by loading 100 μl duplicates of each sample and of the standard in a Maxisorp 96-wells plate (NUNC, F96 Maxisorp, 442404). The plate was sealed and incubated at 4° C. overnight with gentle shaking. The plate was washed by removing the liquid and washing the plate four (4) times using a multi-pipette or an automated washer with 300 μl 0.05% TW-20 (Amresco, 0777-1L) in PBS. The samples were blocked by diluting 5% BSA (MP biomedicals, 160069) in PBS. Then, 300 μl of the blocking buffer were loaded in each well and the plate was incubated at room temperature (R.T.) for 1 hour with gentle shaking. The Plates were washed again, as described above.
Detection was performed by diluting the first antibody according to table 1 below in diluent (0.05% TW-20, 0.1% BSA in PBS). Then, 100 μl of detection antibody were loaded into each well and the plate was incubated at R.T. for 2:00 hours with gentle shaking. The plate was washed again as detailed above. […]
Development was performed by adding 100 μl TMB (Milipore, ES001-500ML) to each well, and waiting for blue color development, then adding 100 μl 2N H2SO4 (Frutarom, 5552540). Plate reading was performed in a microplate reader, by checking the wells absorbance at 450 nm. […]

| Molecule | level of the polypeptide in mice brain following injection | penetration ability of the BBB (mice, I.P. 60 mg/kg) |
| --- | --- | --- |
| WWTFFLPSTLWERK [L-amino acid polypeptide, Trp Trp Thr Phe Phe Leu Pro Ser Thr Leu Trp Glu Arg Lys, reference compound] | changed insignificantly |  |
| CC(C)C[C@@H](NC(=O)[C@H](NC(=O)[C@@H](CO)NC(=O)[C@H]1CCCN1C(=O)[C@@H](CC(C)C)NC(=O)[C@@H](Cc1ccccc1)NC(=O)[C@@H](Cc1ccccc1)NC(=O)[C@H](NC(=O)[C@@H](Cc1c[nH]c2ccccc12)NC(=O)[C@H](N)Cc1c[nH]c2ccccc12)[C@H](C)O)[C@H](C)O)C(=O)N[C@H](Cc1c[nH]c2ccccc12)C(=O)N[C@H](CCC(=O)O)C(=O)N[C@H](CCCNC(=N)N)C(=O)N[C@H](CCCCN)C(=O)O [dTCApFs, Trp Trp Thr Phe Phe Leu Pro Ser Thr Leu Trp Glu Arg Lys] (H-[dW][dW][dT][dF][dF][dL][dP][dS][dT][dL][dW][dE][dR][dK]-OH; N-terminus and C-terminus assumed) | dramatically increased | good penetration ability of the BBB |

— patent US20240009277A1, “POLYPEPTIDES FOR USE IN THE TREATMENT AND PREVENTION OF NEURODEGENERATIVE DISEASES” (IMMUNE SYSTEM KEY LTD., priority 2020, published 2024)
